Source: patent US12714698B2, “Compositions and methods for treating or preventing dermal disorders” (Drexel University, priority 2015, dated 2026)

Columns and labels:
Assay type in all cases: cell-based
[1] = test system: human cardiac fibroblasts; experiment: Mitochondrial respiration, Seahorse XF24 Bioanalyzer
Description: Cell culture experiments utilizing NRTIs were of the following design. Cultures of either human lung or cardiac fibroblasts were cultivated according to standard culture protocols for these cells (Cristofalo, et al., Journal of Tissue Culture Methods 1980, 6:117-121). Parallel sets of cultures were maintained in normal growth media or in normal growth media with the addition of 1 nM rapamycin. Cultures were maintained with 1 nM rapamycin (Enzo Biologicals) for two weeks before exposure to NRTIs. […] Mitochondrial measurements, bioanalyzer measurements, immunoblotting for protein expression and phosphorylation status, and assays for senescence were performed at the end of this 7-day period. Mitochondrial function was measured using the XF cell mito stress test kit on a Seahorse XF24 Bioanalyzer (Seahorse Bioscience). Cells were seeded at a density of 15,000 cells per well in an XF24 microplate. Following acquisition, results were normalized based upon 10^6 cells counted using a Guava EasyCyte Mini (Millipore), where applicable. […] Respiration rates and proton leak were assessed as outlined in published methods (Hill, et al., Biological chemistry 2012, 393:1485-1512). Mitochondrial respiration was calculated based upon oxygen consumption rate measurements in triplicates from cells seeded in at least quadruplicates. Basal respiration represents the initial oxygen consumption rate measurements and maximal respiration represents the oxygen consumption rate measurements following FCCP addition. ATP-linked respiration is represented as the oligomycin-sensitive oxygen change to basal oxygen consumption rate. Proton leak represents the oligmycin insensitive oxygen consumption rate. […] All data was normalized to cell number by counting cells in each well at the completion of the mitochondrial assessments.

[2] = test system: human cardiac fibroblasts; experiment: Immunoblot of electron transport chain and mitochondrial clearance proteins
Description: (§1) Cell culture experiments utilizing NRTIs were of the following design. Cultures of either human lung or cardiac fibroblasts were cultivated according to standard culture protocols for these cells (Cristofalo, et al., Journal of Tissue Culture Methods 1980, 6:117-121). Parallel sets of cultures were maintained in normal growth media or in normal growth media with the addition of 1 nM rapamycin. Cultures were maintained with 1 nM rapamycin (Enzo Biologicals) for two weeks before exposure to NRTIs. Cell cultures were exposed to NRTIs at indicated concentrations in individual experiments (generally 10-20 μg/ml) for 7 days, with a change of media and fresh NRTIs at day 4. Mitochondrial measurements, bioanalyzer measurements, immunoblotting for protein expression and phosphorylation status, and assays for senescence were performed at the end of this 7-day period.
Cell protein extracts were prepared by extracting with radioimmunoprecipitation assay (RIPA) buffer containing a protease inhibitor cocktail (Sigma-Aldrich) and phosphatase inhibitors, NaF and sodium orthovanadate. Protein concentration was quantified using a bicinchoninic acid (BCA) assay (Pierce Biotechnology). Western blot analysis was performed using 15 to 30 μg of protein extracts that were run on SDS-PAGE and transferred onto nitrocellulose (Biorad) membranes. Blots were incubated with antibodies specific for: beta-actin (Sigma-Aldrich), TFAm, parkin, p16, phospho(S82)HSP27, HSP27 (Santa Cruz Biotechnologies), p53, 21, catalase, MDM2 (EMD Millipore), VDAC, phospho(S235/236)-ribosomal protein S6, ribosomal protein S6, phospho(S166)-MDM2, phospho(5473)-AKT, AKT, beta-tubulin (Cell Signaling), p62 (Enzo Biologicals), IL-6 (NeoBiolab), lamin B1, PINK1, and Mitoprofile Total OXPHOS Cocktail (complex I-NDUFB8 subunit, CII-SDHB subunit, CIIIUQCRC2 subunit, and CIV-mitochondrial COX1 subunit) (Abcam) according to manufacturers' instructions. […] For co-immunoprecipitation, cell protein extracts were prepared in HNTG buffer containing a protease inhibitor cocktail and quantified using BCA assay. […]

[3] = test system: human cardiac fibroblasts; experiment: Mitochondrial membrane potential, mass, superoxide and total ROS by flow cytometry; conditions: cultures grown with 1 nM rapamycin, NRTIs 7 days
Description: as §1
Cell culture reagents were from Cellgro, unless indicated. WI-38 fetal-lung primary human fibroblasts or human cardiac fibroblasts were grown in MEM supplemented with 10% fetal bovine serum, 1% L-glutamine, MEM vitamins, and MEM non-essential amino acids. Cells were maintained in a 37° C. in 5% CO2 incubator. For treatment studies, cells were treated with 1 nM rapamycin (Enzo Biologicals) for two weeks before treatment with NRTIs. Cells were maintained by trypsinization and reseeding at a cell density of 1×10^4/cm^2 every 7 to 10 days. Emtricitabine (FTC) and tenofovir disoproxil fumarate (TDF) were kindly provided by the NIH AIDS Research & Reference Reagent program. During the 7-day exposure to the NRTIs, the pharmacologic inhibitors PD98059 (10 μM, Santa Cruz Biotechnologies), BI-D1870, GW5074, and SB203580 (10 μM, Enzo Biologicals) were added to the culture medium either during the final 48 hours or for the final 2 hours depending upon the experiment. During the 7-day exposure to NRTIs, Trolox (500 μM) and N-acetylcysteine (100 μM, Acros Organics) were added every other day. Mito-Q (20 nM) and TPP (20 nM) were kindly provided by Dr. Brett Kaufmann at the University of Pennsylvania School of Veterinary Medicine. Vector and mt-catalase adenoviruses (MOI's 25, 50, and 75) were purchased from Gene Transfer Vector Core from the University of Iowa.
Mitochondrial membrane potential was detected by incubating cells with 25 nM TMRE (Molecular Probes). Mitochondrial mass was evaluated by incubating the cells with 100 nM Mitotracker Green FM (Molecular Probes). Mitochondrial superoxide anion levels were detected by incubating the cells with 5 μM MitoSox Red (Molecular Probes). Total cellular levels of ROS were detected by incubating the cells with 10 μM 2′,7′-dichlorofluoroscein diacetate (DCF-DA; Sigma-Aldrich) in 1% fetal bovine serumsupplemented MEM and washing twice with Krebs Ringer phosphate glucose buffer (145 mM NaCl, 5.7 mM NaH2PO4, 4.86 mM KCL, 0.54 mM CaCl2), 1.22 mM MgSO4, and 5.5 mM glucose) following the incubation period. For the aforementioned assessments, incubation was performed at 37° C. in 5% CO2 for 30 minutes and cells were harvested in 2.5% trypsin-EDTA with serum-containing medium. Cells were immediately analyzed with a Guava EasyCyte Mini employing the Guava Express Plus program (Guava Technologies).

**Q.** Which results are given for CO[C@H]1C[C@@H]2CC[C@@H](C)[C@@](O)(O2)C(=O)C(=O)N2CCCC[C@H]2C(=O)O[C@H]([C@H](C)C[C@@H]2CC[C@@H](O)[C@H](OC)C2)CC(=O)[C@H](C)/C=C(\C)[C@@H](O)[C@@H](OC)C(=O)[C@H](C)C[C@H](C)/C=C/C=C/C=C/1C [rapamycin]?
**A.** basal respiration ([1]; rapamycin-treated (1 nM) vs standard culture): significantly lower; basal respiration when exposed to NRTIs ([1]; rapamycin-treated cells (1 nM)): did not exhibit an increase; maximal respiration when exposed to NRTIs ([1]; rapamycin-treated cells (1 nM)): did not exhibit an increase; proton leak following exposure to NRTIs ([1]; rapamycin-treated cells (1 nM)): did not exhibit an increase; ATP-linked respiration ([1]; rapamycin-treated cultures (1 nM)): reduced; steady state levels of NDUFB8, SDHB, UQCRC2 and mt-CO1 ([2]; cells treated with rapamycin vs control): lower; ETC protein levels on exposure to NRTIs ([2]; rapamycin-treated cells): not elevated; level of p62/SQSTM1 ([2]; response to rapamycin): decreased; mitochondrial ROS following exposure to NRTIs [3]: did not exhibit the same level of increase; mitochondrial membrane potential following exposure to NRTIs [3]: did not exhibit the same level of increase; total cellular ROS following exposure to NRTIs [3]: did not exhibit the same level of increase
